From the NIST ThermoML archive (doi:10.1021/je050010l)
Numbers after ± are expanded uncertainties.

What was measured:
[1] = refractive index (Na D-line) (dimensionless); xn = mol fraction of the nth substance listed; conditions: 100.8 kPa, Liquid, Standard Abbe refractometry
[2] = xn = mol fraction of the nth substance listed; conditions: 288.15 K, 100.8 kPa, Liquid; for viscosity: Capillary tube (Ostwald / Ubbelohde) method

Q: What does the source list for `CC(C)CC(C)(C)C` [2,2,4-trimethylpentane] + CCO?
A: refractive index ([1]; 288.15 K, x2 = 0): 1.39404 ± 0.00031; refractive index ([1]; 288.15 K, x2 = 0.0502): 1.39319 ± 0.00031; refractive index ([1]; 288.15 K, x2 = 0.1): 1.39241 ± 0.00031; refractive index ([1]; 288.15 K, x2 = 0.15): 1.39162 ± 0.00031; refractive index ([1]; 288.15 K, x2 = 0.2): 1.39081 ± 0.00031; refractive index ([1]; 288.15 K, x2 = 0.25): 1.38996 ± 0.00031; refractive index ([1]; 288.15 K, x2 = 0.3): 1.38907 ± 0.00031; refractive index ([1]; 288.15 K, x2 = 0.35): 1.38811 ± 0.00031; refractive index ([1]; 288.15 K, x2 = 0.4): 1.38709 ± 0.00031; refractive index ([1]; 288.15 K, x2 = 0.45): 1.38597 ± 0.00031; refractive index ([1]; 288.15 K, x2 = 0.5): 1.38479 ± 0.00031; refractive index ([1]; 288.15 K, x2 = 0.55): 1.3835 ± 0.00031; refractive index ([1]; 288.15 K, x2 = 0.6): 1.38209 ± 0.00031; refractive index ([1]; 288.15 K, x2 = 0.65): 1.38055 ± 0.00031; refractive index ([1]; 288.15 K, x2 = 0.7): 1.37884 ± 0.00031; refractive index ([1]; 288.15 K, x2 = 0.75): 1.37694 ± 0.00031; refractive index ([1]; 288.15 K, x2 = 0.8): 1.37484 ± 0.00031; refractive index ([1]; 288.15 K, x2 = 0.85): 1.37249 ± 0.00031; refractive index ([1]; 288.15 K, x2 = 0.9): 1.36984 ± 0.00031; refractive index ([1]; 288.15 K, x2 = 0.95): 1.36684 ± 0.00031; refractive index ([1]; 298.15 K, x2 = 0): 1.389 ± 0.00031; refractive index ([1]; 298.15 K, x2 = 0.0502): 1.3881 ± 0.00031; refractive index ([1]; 298.15 K, x2 = 0.1): 1.3873 ± 0.00031; refractive index ([1]; 298.15 K, x2 = 0.15): 1.38651 ± 0.00031; refractive index ([1]; 298.15 K, x2 = 0.2): 1.38569 ± 0.00031; refractive index ([1]; 298.15 K, x2 = 0.25): 1.38485 ± 0.00031; refractive index ([1]; 298.15 K, x2 = 0.3): 1.38397 ± 0.00031; refractive index ([1]; 298.15 K, x2 = 0.35): 1.38304 ± 0.00031; refractive index ([1]; 298.15 K, x2 = 0.4): 1.38204 ± 0.00031; refractive index ([1]; 298.15 K, x2 = 0.45): 1.38099 ± 0.00031; refractive index ([1]; 298.15 K, x2 = 0.5): 1.37984 ± 0.00031; refractive index ([1]; 298.15 K, x2 = 0.55): 1.37858 ± 0.00031; refractive index ([1]; 298.15 K, x2 = 0.6): 1.37722 ± 0.00031; refractive index ([1]; 298.15 K, x2 = 0.65): 1.37573 ± 0.00031; refractive index ([1]; 298.15 K, x2 = 0.7): 1.37408 ± 0.00031; refractive index ([1]; 298.15 K, x2 = 0.75): 1.37225 ± 0.00031; refractive index ([1]; 298.15 K, x2 = 0.8): 1.3702 ± 0.00031; refractive index ([1]; 298.15 K, x2 = 0.85): 1.36792 ± 0.00031; refractive index ([1]; 298.15 K, x2 = 0.9): 1.36536 ± 0.00031; refractive index ([1]; 298.15 K, x2 = 0.95): 1.36248 ± 0.00031; refractive index ([1]; 308.15 K, x2 = 0): 1.38395 ± 0.00031; refractive index ([1]; 308.15 K, x2 = 0.0502): 1.38297 ± 0.00031; refractive index ([1]; 308.15 K, x2 = 0.1): 1.38217 ± 0.00031; refractive index ([1]; 308.15 K, x2 = 0.15): 1.38138 ± 0.00031; refractive index ([1]; 308.15 K, x2 = 0.2): 1.38056 ± 0.00031; refractive index ([1]; 308.15 K, x2 = 0.25): 1.37972 ± 0.00031; refractive index ([1]; 308.15 K, x2 = 0.3): 1.37885 ± 0.00031; refractive index ([1]; 308.15 K, x2 = 0.35): 1.37794 ± 0.00031; refractive index ([1]; 308.15 K, x2 = 0.4): 1.37696 ± 0.00031; refractive index ([1]; 308.15 K, x2 = 0.45): 1.37593 ± 0.00031; refractive index ([1]; 308.15 K, x2 = 0.5): 1.3748 ± 0.00031; refractive index ([1]; 308.15 K, x2 = 0.55): 1.37358 ± 0.00031; refractive index ([1]; 308.15 K, x2 = 0.6): 1.37227 ± 0.00031; refractive index ([1]; 308.15 K, x2 = 0.65): 1.37083 ± 0.00031; refractive index ([1]; 308.15 K, x2 = 0.7): 1.36922 ± 0.00031; refractive index ([1]; 308.15 K, x2 = 0.75): 1.36745 ± 0.00031; refractive index ([1]; 308.15 K, x2 = 0.8): 1.3655 ± 0.00031; refractive index ([1]; 308.15 K, x2 = 0.85): 1.3633 ± 0.00031; refractive index ([1]; 308.15 K, x2 = 0.9): 1.36085 ± 0.00031; refractive index ([1]; 308.15 K, x2 = 0.95): 1.35812 ± 0.00031; viscosity ([2]; x2 = 0): 0.537 ± 0.005 mPa·s; viscosity ([2]; x2 = 0.0502): 0.532 ± 0.005 mPa·s; viscosity ([2]; x2 = 0.1): 0.535 ± 0.005 mPa·s; viscosity ([2]; x2 = 0.15): 0.542 ± 0.005 mPa·s; viscosity ([2]; x2 = 0.2): 0.551 ± 0.005 mPa·s; viscosity ([2]; x2 = 0.25): 0.564 ± 0.005 mPa·s; viscosity ([2]; x2 = 0.3): 0.58 ± 0.005 mPa·s; viscosity ([2]; x2 = 0.35): 0.601 ± 0.005 mPa·s; viscosity ([2]; x2 = 0.4): 0.625 ± 0.005 mPa·s; viscosity ([2]; x2 = 0.45): 0.652 ± 0.006 mPa·s; viscosity ([2]; x2 = 0.5): 0.682 ± 0.006 mPa·s; viscosity ([2]; x2 = 0.55): 0.718 ± 0.006 mPa·s; viscosity ([2]; x2 = 0.6): 0.755 ± 0.006 mPa·s; viscosity ([2]; x2 = 0.65): 0.797 ± 0.007 mPa·s; viscosity ([2]; x2 = 0.7): 0.843 ± 0.007 mPa·s; viscosity ([2]; x2 = 0.75): 0.894 ± 0.007 mPa·s; viscosity ([2]; x2 = 0.8): 0.952 ± 0.008 mPa·s; viscosity ([2]; x2 = 0.85): 1.018 ± 0.008 mPa·s; viscosity ([2]; x2 = 0.9): 1.095 ± 0.009 mPa·s; viscosity ([2]; x2 = 0.95): 1.19 ± 0.01 mPa·s; mass density ([2]; x2 = 0): 695.95 ± 0.31 kg/m3; mass density ([2]; x2 = 0.0502): 697.2 ± 0.31 kg/m3; mass density ([2]; x2 = 0.1): 698.76 ± 0.31 kg/m3; mass density ([2]; x2 = 0.15): 700.55 ± 0.3 kg/m3; mass density ([2]; x2 = 0.2): 702.53 ± 0.3 kg/m3; mass density ([2]; x2 = 0.25): 704.71 ± 0.3 kg/m3; mass density ([2]; x2 = 0.3): 707.1 ± 0.3 kg/m3; mass density ([2]; x2 = 0.35): 709.71 ± 0.3 kg/m3; mass density ([2]; x2 = 0.4): 712.6 ± 0.29 kg/m3; mass density ([2]; x2 = 0.45): 715.8 ± 0.29 kg/m3
